The subject of data set [1] is Mouse leukemia cells L1210. The data set can be described thus: Experiment 1 anti-tumor activity test in L1210 implanted CDF1 mice. It counts as in vivo. As to conditions: for T/C: L1210 i.p. implanted CDF1 mice; for Number of survived mice (on 30th day): survivors/total on 30th day. The procedure:
Mouse leukemia cells L1210 (1×10^5) were implanted intraperitoneally to CDF1 mice (female, aged: 8 weeks) on the 0 day of implantation. CDDP and CBDCA were used as a reference. The anti-tumor activity of the platinum complexes in L1210 implanted mice were expressed by the T/C value, which was determined according to the following equation, and by the number of mice which survived until the 30th day of implantation. [formula]

In a further data set the test system is L1210 cells. The data set can be described thus: Experiment 2 growth inhibition of L1210 cells. Type of data set: cell-based, mouse. The following applies: text calls it IC50. The protocol: The drug sensitivity (a) was determined according to the following equation. [formula]
Data set [2] relates to cisplatin resistant mouse leukemia cells L1210 (L1210/CDDP). The data set can be described thus: Experiment 2 growth inhibition of cisplatin resistant L1210/CDDP cells. It counts as cell-based.
Data set [3] can be described thus: Experiment 3 blood urea nitrogen (BUN) and body weight in ICR mice. As to conditions: for Difference of weights: average weight 12th day vs 1st day; for BUN value: blood on 12th day, control 27.2 ± 1.9.
Protocol: (§1) Test compounds were administered to ICR mice (aged: 8 weeks) on the 1st day, the 5th day and the 9th day. The blood was collected therefrom on the 12th day, and the concentrations of blood urea nitrogen (BUN) were determined.
(§2) *Control group: druguntreated normal mouse
For data set [4] the following is noted: mouse, in vivo.
Protocol: as §1, §2

Read-outs that look alike come from different tables or passages of the source.

Consider four compounds from US5101054A, “Novel fluorine-containing platinum complex” (priority 1989, dated 1992).

In general, T/C refers to the ratio of treated to control. Broadly, the IC50 is the midpoint of a concentration-inhibition curve. Read a low IC50 as higher potency.

On to `N.N.O=C([O-])C1(C(=O)[O-])CCC1.[Pt+2]` [CBDCA, cisdiamino-1,1-cyclobutanedicarboxylato platinum (II)], for which the T/C was 139% in data set [1] (dose 12.5 mg/kg), 199% in data set [1] (dose 25 mg/kg), 340% in data set [1] (dose 50 mg/kg) and 366% in data set [1] (dose 100 mg/kg). Further, the “Number of survived mice (on 30th day)” value in data set [1] (dose 12.5 mg/kg) is 0/6; in data set [1] (dose 25 mg/kg) it was 0/6; in data set [1] (dose 50 mg/kg), 2/6; in data set [1] (dose 100 mg/kg), 2/6. The half-inhibitory concentration (IC50) in the data set with L1210 cells is 0.25 µg/mL. Further, the “IC50 L1210/CDDP” value in data set [2] worked out at 1.82 µg/mL. Further, the Difference of weights in data set [3] (dose 100 mg/kg on days 1, 5, 9) is listed as -3.0 g. The same compound displayed a BUN value in data set [3] (dose 100 mg/kg on days 1, 5, 9) of 21.0 ± 4.0 mg/dL.

For the compound `CC(CN)(CN)C(F)(F)F.O=C([O-])C1(C(=O)[O-])CCC1.[Pt+2]` [Compound of Ex. 2, cis-(2-methyl-2-trifluoromethyl-1,3-propanediamine)-1,1-cyclobutanedicarboxylato platinum (II)], the T/C in data set [1] (dose 50 mg/kg) came to 192%; in data set [1] (dose 100 mg/kg) it was 267%. The “Number of survived mice (on 30th day)” value in data set [1] (dose 50 mg/kg) and in data set [1] (dose 100 mg/kg) was 0/6 in each case.

As for `N.N.[Cl][Pt][Cl]` [CDDP, cis-dichlorodiamine platinum (II)], the T/C amounted to 227% in data set [1] (dose 6.25 mg/kg), 282% in data set [1] (dose 12.5 mg/kg) and 367% in data set [1] (dose 25 mg/kg). In addition, the “Number of survived mice (on 30th day)” value is recorded as 0/6 in data set [1] (dose 6.25 mg/kg), 1/6 in data set [1] (dose 12.5 mg/kg) and 4/6 in data set [1] (dose 25 mg/kg). Also, the “IC50 L1210/CDDP” value in data set [2] is 0.50 µg/mL. Moreover, the Difference of weights in data set [3] (dose 18 mg/kg on days 1, 5, 9) is -4.8 g; in data set [3] (dose 25 mg/kg on days 1, 5, 9), -8.9 g. Moreover, the BUN value was determined as 83.7 mg/dL in data set [3] (dose 18 mg/kg on days 1, 5, 9) and 112.3 ± 16.6 mg/dL in data set [3] (dose 25 mg/kg on days 1, 5, 9).

For the compound “cis-dichloro-(2-methyl-2-trifluoromethyl-1,3-propanediamine)platinum (II) [Compound of Ex. 1]”, the T/C in data set [1] (dose 12.5 mg/kg) is on record as greater than 304%; in data set [1] (dose 25 mg/kg) it was 375%; in data set [1] (dose 50 mg/kg), 273%. Besides, the “Number of survived mice (on 30th day)” value was 3/6 in data set [1] (dose 12.5 mg/kg), 6/6 in data set [1] (dose 25 mg/kg) and 0/6 in data set [1] (dose 50 mg/kg). Also, the BUN value was 23.3 mg/dL in data set [4] (25 mg/kg) and 17.8 mg/dL in data set [4] (50 mg/kg). In addition, the results for the Difference of weights in data set [4] (25 mg/kg) and in data set [4] (50 mg/kg) were -2.3 g and -5.4 g, respectively. Moreover, the “IC50 L1210/CDDP” value in data set [2] amounted to 0.10 µg/mL.
